Measured values: US12692478B2, “Populations of enriched regulatory T cells and methods for producing same” (Cellenkos Inc., priority 2021, dated 2026)

Columns and labels:
[1] = test system: SLE-PBMC; experiment: IFN-gamma release by pathogenic lupus cells (SLE-PBMC); format: cell-based, human; conditions: control, non-specific inflammatory stimulus
Source text: FIG. 32 is a bar graph depicting the amount of interferon (IFN)—gamma released by pathogenic lupus cells in the presence or absence of combinations of (1) activated Treg cells; (2) ruxolitinib; and/or (3) camptothecin. Rux=ruxolitinib. SLE-PBMC=peripheral blood mononuclear cells derived from subjects with systemic lupus erythematosus. D6=Day 6.

[2] = test system: graft versus host disease (GVHD); conditions: mouse, in vivo
Procedure: FIG. 33 depicts a schematic for treatment of a xenogeneic mouse graft versus host disease (GVHD) model with a ruxolitinib and activated Treg cells regimen. PBMC=peripheral blood mononuclear cells.
A xenogeneic mouse graft versus host disease (GVHD) model was treated with a ruxolitinib and activated CB Treg cells regimen, as depicted in FIG. 33. NSG mice underwent sublethal irradiation on day −1 followed by injection of 1×10^7 donor peripheral blood (PB) mononuclear cells (MNCs) on day 0. Oral ruxolitinib at 1 mg daily was fed continuously to the mice in the presence or absence of 1×10^7 CB Treg cells, tagged with CellTrace™ Violet dye (ThermoFisher), administered on days +4, +7, +11, +18. Mice were followed every other day for weight, GVHD score and survival. Serial blood draws were performed to analyze for cell compartment and cytokine assays.

Compound: CC[C@@]1(O)C(=O)OCc2c1cc1n(c2=O)Cc2cc3ccccc3nc2-1 [Camptothecin]
- IFNγ secretion from CB Treg cells [1]: does not increase

Compound: N#CC[C@H](C1CCCC1)n1cc(-c2ncnc3[nH]ccc23)cn1 [ruxolitinib]
- CB Treg persistence [2]: improved CB Treg persistence
